Results reported in ChEMBL document CHEMBL4020759, “Sulfoximines as ATR inhibitors: Analogs of VE-821” (2017).

Experiments:
Type in all cases: functional
EKVX = experiment: Growth inhibition of human EKVX cells assessed as cell growth at 10 uM incubated for 48 hrs by sulforhodamine B assay; conditions: read-out: Activity
SR = experiment: Growth inhibition of human SR cells assessed as cell growth at 10 uM incubated for 48 hrs by sulforhodamine B assay; conditions: read-out: Activity
NCI-H226 = experiment: Growth inhibition of human NCI-H226 cells assessed as cell growth at 10 uM incubated for 48 hrs by sulforhodamine B assay; conditions: NCI-H226, 48 h, read-out: Activity

| Structure (SMILES) | growth at 10 µM (EKVX) | growth at 10 µM (SR) | growth at 10 µM (NCI-H226) |
| --- | --- | --- | --- |
| CS(=O)(=NC#N)c1ccc(-c2cnc(N)c(C(=O)Nc3ccccc3)n2)cc1 (stereo unspecified) | 88.1% | 44% | 92% |
| C/S(=N\C#N)c1ccc(-c2cnc(N)c(C(=O)Nc3ccccc3)n2)cc1 (stereo unspecified) | 107% | 57.1% | 88.5% |
